According to patent US10266550B2, “Bacterial topoisomerase I inhibitors with antibacterial activity” (The Florida International University Board of Trustees, priority 2016, dated 2019):
In brackets after ≈: the same amount, converted by molar mass. Like-named read-outs stand apart in the source and are kept apart here.

What was measured:
E. coli (MG1655) WT = assay: MIC, microdilution in Mueller-Hinton Broth; conditions: wild type, read-out: Whole cell based antibacterial activity (MIC) E. coli (MG1655) WT
E. coli topoisomerase I = E. coli topoisomerase I (Escherichia coli (strain K12), UniProt P06612); assay: biochemical; format: biochemical
Method: Recombinant E. coli topoisomerase I and gyrase expressed in E. coli were purified as described previously.
E. coli Topoisomerase I Relaxation Activity Inhibition Assay
The relaxation activity of E. coli topoisomerase I was assayed in a buffer containing 10 mM Tris-HCl, pH 8.0, 50 mM NaCl, 0.1 mg/mL gelatin, and 0.5 mM MgCl2. Half microliter from the appropriate stock solutions of compounds dissolved in the solvent (DMSO) or the solvent alone (control) was mixed with 9.5 μL of the reaction buffer containing 10 ng of enzyme before the addition of 10 μL of reaction buffer containing 200 ng of supercoiled pBAD/Thio plasmid DNA purified by cesium chloride gradient as substrate. Following incubation at 37° C. for 30 min, the reactions were terminated by the addition of 4 μL of a stop buffer (50% glycerol, 50 mM EDTA, and 0.5% (v/v) bromophenol blue), and analyzed by agarose gel electrophoresis. The gels were stained in ethidium bromide and photographed under UV light.

[1] = tested on: E. coli Imp4213 (BAS3023); assay: MIC, microdilution in Mueller-Hinton Broth; format: cell-based; conditions: for MIC: Escherichia coli, read-out: Whole cell based antibacterial activity (MIC) E. coli Imp4213 (BAS3023), membrane permeable imp mutant; for Whole cell based antibacterial activity (MIC) E. coli Imp4213 (BAS3023): membrane permeable imp mutant
[2] = tested on: B. subtilis (ATCC 6633) WT; assay: MIC, microdilution in Mueller-Hinton Broth; conditions: read-out: Whole cell based antibacterial activity (MIC) B. subtilis (ATCC 6633) WT
Vero cells = assay: Vero cell cytotoxicity assay; format: cell-based; conditions: for IC50: cytotoxicity
Method: MICs of compounds against M. tuberculosis were determined by a modified microplate Alamar blue assay (MABA). Vero cell cytotoxicity assay was performed as previously described.

M. tuberculosis (H37Rv) = assay: MIC, microplate Alamar blue assay (MABA); format: cell-based; conditions: MABA, read-out: Whole cell based antibacterial activity (MIC) M. tuberculosis (H37Rv)
Human topoisomerase I = Human topoisomerase I (Homo sapiens (Human), UniProt P11387); assay: Human topoisomerase I relaxation inhibition assay; format: biochemical; conditions: read-out: Topoisomerase inhibitory activity (IC50) Human topo I (type IB)
Method: Human topoisomerase I relaxation assays were carried out with 0.5 U of enzyme in reaction buffer supplied by the manufacturer. The enzyme was mixed with the indicated concentration of compound dissolved before 200 ng of supercoiled pBAD/Thio plasmid DNA was added in the same buffer, for a final volume of 20 μL. Following incubation at 37° C. for 30 minutes, the reactions were terminated with a buffer containing 5% SDS, 0.25% bromophenol blue, and 25% glycerol, and analyzed by agarose gel electrophoresis.
Human topoisomerase I and topoisomerase IIα were purchased from TopoGen (Buena vista, CO, USA).

[3] = Topoisomerase inhibitory activity (IC50) E. coli topo I (type IA), relaxation of supercoiled plasmid DNA
[4] = experimental, converted from IC50
[5] = Table 3, E. coli topoisomerase I, single values set for ranges and bounds, read-out: IC50 (μM) used for CoMFA
[6] = relaxation of supercoiled plasmid DNA, read-out: Topoisomerase inhibitory activity (IC50) E. coli topo I (type IA)
[7] = Bacillus subtilis, ATCC6633, wild type

E. coli topoisomerase I, sequence (P06612 whole entry, looked up): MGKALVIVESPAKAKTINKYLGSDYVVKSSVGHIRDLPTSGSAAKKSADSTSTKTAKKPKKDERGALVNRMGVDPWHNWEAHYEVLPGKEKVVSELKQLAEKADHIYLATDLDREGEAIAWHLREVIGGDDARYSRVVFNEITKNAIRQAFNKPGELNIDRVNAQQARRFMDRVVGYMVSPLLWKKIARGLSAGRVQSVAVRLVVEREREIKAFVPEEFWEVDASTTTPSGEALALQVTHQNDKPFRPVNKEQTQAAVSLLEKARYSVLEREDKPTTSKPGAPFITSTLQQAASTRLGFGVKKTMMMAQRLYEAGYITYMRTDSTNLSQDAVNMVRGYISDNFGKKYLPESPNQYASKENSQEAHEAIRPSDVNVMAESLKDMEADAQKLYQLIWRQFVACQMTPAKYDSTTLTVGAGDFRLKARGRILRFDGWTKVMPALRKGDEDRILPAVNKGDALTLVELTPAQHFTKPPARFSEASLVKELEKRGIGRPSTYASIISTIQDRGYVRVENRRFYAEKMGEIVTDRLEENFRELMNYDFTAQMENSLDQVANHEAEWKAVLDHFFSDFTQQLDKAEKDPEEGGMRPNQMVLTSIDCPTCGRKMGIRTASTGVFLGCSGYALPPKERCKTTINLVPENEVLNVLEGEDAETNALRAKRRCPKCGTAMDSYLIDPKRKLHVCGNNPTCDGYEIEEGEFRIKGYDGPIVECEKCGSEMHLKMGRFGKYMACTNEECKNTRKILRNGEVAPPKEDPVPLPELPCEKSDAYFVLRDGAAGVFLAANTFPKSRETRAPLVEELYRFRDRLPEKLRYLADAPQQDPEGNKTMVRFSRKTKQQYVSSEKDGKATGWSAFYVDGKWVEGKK
Human topoisomerase I, sequence (P11387 whole entry): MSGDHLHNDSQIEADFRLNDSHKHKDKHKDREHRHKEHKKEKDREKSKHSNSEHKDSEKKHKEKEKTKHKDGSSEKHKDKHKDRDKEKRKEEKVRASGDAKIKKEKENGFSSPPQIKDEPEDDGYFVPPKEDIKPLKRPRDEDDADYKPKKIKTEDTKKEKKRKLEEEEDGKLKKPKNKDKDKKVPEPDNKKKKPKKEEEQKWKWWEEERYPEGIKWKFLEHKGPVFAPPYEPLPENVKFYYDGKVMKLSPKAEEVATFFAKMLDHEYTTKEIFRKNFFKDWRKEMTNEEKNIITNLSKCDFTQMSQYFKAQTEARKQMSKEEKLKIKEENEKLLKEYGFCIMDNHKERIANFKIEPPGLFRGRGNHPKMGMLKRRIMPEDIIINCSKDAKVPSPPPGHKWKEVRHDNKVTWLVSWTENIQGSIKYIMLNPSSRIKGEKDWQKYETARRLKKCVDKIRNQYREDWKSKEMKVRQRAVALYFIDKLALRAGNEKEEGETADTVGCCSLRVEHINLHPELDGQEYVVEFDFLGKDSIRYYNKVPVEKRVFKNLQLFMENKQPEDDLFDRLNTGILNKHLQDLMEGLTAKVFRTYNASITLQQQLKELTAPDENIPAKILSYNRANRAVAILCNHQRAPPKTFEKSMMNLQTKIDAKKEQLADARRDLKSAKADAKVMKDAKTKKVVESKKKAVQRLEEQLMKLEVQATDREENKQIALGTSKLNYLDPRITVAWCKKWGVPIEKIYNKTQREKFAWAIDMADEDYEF

Structure (SMILES) | MIC (E. coli (MG1655) WT; Escherichia coli, MG1655) [µM] | PIC50 (pIC50 = −log IC50) (E. coli topoisomerase I; [4]) | MIC [1] [µM] | IC50 (E. coli topoisomerase I; [6]) [µM] | also measured
CC1CCN(c2c(F)cc3c(=O)c(C(=O)O)cn4c3c2Oc2cc(N)ccc2-4)CC1 [Compound 11c, 9-Amino-5-fluoro-6-(4-methylpiperidin-1-yl)-3-oxo-3H-pyrido[3,2,1-kl]phenoxazine-2-carboxylic acid] | > 200 | 5.41 | 3.12 (≈ 1.28 µg/mL) |  | IC50 (E. coli topoisomerase I; [3]): 3.9 to 15.6 µM
O=C(O)c1cn2c3c(c(F)c(F)cc3c1=O)Oc1cc([N+](=O)[O-])ccc1-2 [Compound 7a, 5,6-Difluoro-9-nitro-3-oxo-3H-pyrido[3,2,1-kl]phenoxazine-2-carboxylic acid] | 200 (≈ 72 µg/mL) | 4.81 | 0.78 (≈ 0.281 µg/mL) |  | 
CCOC(=O)c1cn2c3c(c(F)c(F)cc3c1=O)Oc1cc([N+](=O)[O-])ccc1-2 [Compound 6a, Ethyl 5,6-difluoro-9-nitro-3-oxo-3H-pyrido[3,2,1-kl]phenoxazine-2-carboxylate] | > 200 | 4.81 | 50 (≈ 19.4 µg/mL) |  | 
N#Cc1ccc2c(c1)Oc1c(F)c(F)cc3c(=O)c(C(=O)O)cn-2c13 [Compound 7b, 9-Cyano-5,6-d fluoro-3-oxo-3H-pyrido[3,2,1-d]phenoxazine-2-carboxylic acid] |  | 4.51 |  | 31.2 | MIC ([2]; wild type): >200 µM; MIC (E. coli (MG1655) WT): >200 µM; IC50 (E. coli topoisomerase I; [5]): 31.2 µM; Whole cell based antibacterial activity (MIC) E. coli Imp4213 (BAS3023) [1]: 200 µM
Nc1ccc2c(c1)Oc1c(NC3CCCCC3)c(F)cc3c(=O)c(C(=O)O)cn-2c13 [Compound 11i, 9-Amino-6-(cyclohexylamino)-5-fluoro-3-oxo-3H-pyrido[3,2,1-kl]phenoxazine-2-carboxylic acid] | > 200 | 5.41 | 25 (≈ 10.2 µg/mL) |  | IC50 (E. coli topoisomerase I; [3]): 3.9 to 15.6 µM
CCOC(=O)c1cn2c3c(c(N4CCN(C)CC4)c(F)cc3c1=O)Oc1cc([N+](=O)[O-])ccc1-2 [Compound 9, Ethyl-5-fluoro-6-(4-methylpiperazin-1-yl)-9-nitro-3-oxo-3H-pyrido[3,2,1-kl]phenoxazine-2-carboxylate] | > 200 | 5.71 | 25 (≈ 11.7 µg/mL) |  | 
Nc1ccc2c(c1)Oc1c(N3CC[C@H](N)C3)c(F)cc3c(=O)c(C(=O)O)cn-2c13 [Compound 17a, (S)-9-amino-6-(3-aminopyrrolidin-1-yl)-S-fluoro-3-oxo-3H-pyrido[3,2,1-kl]phenoxazine-2-carboxylic acid] |  | 6.14 |  | 0.48 to 0.97 | MIC ([2]; wild type): 6.25 µM (≈ 2.48 µg/mL); MIC (E. coli (MG1655) WT): >200 µM; IC50 (E. coli topoisomerase I; [5]): 0.73 µM; IC50 (Vero cells): > 63.1 µM; MIC (M. tuberculosis (H37Rv)): >63.1 µM; Whole cell based antibacterial activity (MIC) E. coli Imp4213 (BAS3023) [1]: 1.56 µM
O=C(O)c1cn2c3c(c(F)c(F)cc3c1=O)Oc1cc(C(F)(F)F)ccc1-2 [Compound 7c, 5,6-Difluoro-3-oxo-9-(trifluoromethyl)-3H-pyrido[3,2,1-kl]phenoxazine-2-carboxylic acid] | > 200 |  |  | > 125 | activity against topoisomerase I when tested at 125 μM (E. coli topoisomerase I): inactive; IC50 (E. coli topoisomerase I; IC50 (μM) used for CoMFA, Table 3, E. coli topoisomerase I, single values set for ranges and bounds): 250 µM; IC50 (E. coli topoisomerase I; PIC50 (pIC50 = −log IC50), experimental, converted from IC50): 245 µM
CC(=O)c1ccc2c(c1)Oc1c(F)c(F)cc3c(=O)c(C(=O)O)cn-2c13 [Compound 7d, 9-A cetyl-5,6-difluoro-3-oxo-3H-pyrido[3,2,1-kl]phenoxazine-2-carboxylic acid] | > 200 | 4.81 |  |  | MIC [2, 7]: > 200 µM
Nc1ccc2c(c1)Oc1c(N3CCNCC3)c(F)cc3c(=O)c(C(=O)O)cn-2c13 [Compound 11b, 9-Amino-5-fluoro-3-oxo-6-(piperazin-1-yl)-3H-pyrido[3,2,1-kl]phenoxazine-2-carboxylic acid] | > 200 | 6.62 | 0.39 (≈ 0.155 µg/mL) |  | IC50 (E. coli topoisomerase I; [3]): 0.24 to 0.97 µM; IC50 (Vero cells; Chlorocebus sabaeus, Vero): > 126 µM; IC50 (Human topoisomerase I): 7.8 µM
O=C(O)c1cn2c3c(c(N4CCNCC4)c(F)cc3c1=O)Oc1cc([N+](=O)[O-])ccc1-2 [Compound 10b, 5-Fluoro-9-nitro-3-oxo-6-(piperazin-1-yl)-3H-pyrido[3,2,1-kl]phenoxazine-2-carboxylic acid] | > 200 | 5.41 |  |  | MIC [2, 7]: > 200 µM
Nc1ccc2c(c1)Oc1c(NC3CCCC3)c(F)cc3c(=O)c(C(=O)O)cn-2c13 [Compound 11j, 9-Amino-6-(cyclopentylamino)-5-fluoro-3-oxo-3H-pyrido[3,2,1-kl]phenoxazine-2-carboxylic acid] | > 200 | 5.41 | 25 (≈ 9.88 µg/mL) |  | IC50 (E. coli topoisomerase I; [3]): 3.9 to 15.6 µM
CCOC(=O)c1cn2c3c(c(F)c(F)cc3c1=O)Oc1cc(C(F)(F)F)ccc1-2 [Compound 6c, Ethyl 5,6-difluoro-3-oxo-9-(trifluoromethyl)-3H-pyrido[3,2, I-kl]phenoxazine-2-carboxylate] |  | 3.60 |  | > 125 | MIC ([2]; wild type): >200 µM; MIC (E. coli (MG1655) WT): >200 µM; activity against topoisomerase I when tested at 125 μM (E. coli topoisomerase I): inactive; IC50 (E. coli topoisomerase I; [5]): 250 µM; Whole cell based antibacterial activity (MIC) E. coli Imp4213 (BAS3023) [1]: >200 µM
CC(C)(C)OC(=O)N[C@H]1CCN(c2c(F)cc3c(=O)c(C(=O)O)cn4c3c2Oc2cc(N)ccc2-4)C1 [Compound 15a, (S)-9-amino-6-(3-((tert-butoxycarbonyl)amino)pyrrolidin-1-yl)-S-fluoro-3-oxo-3H-pyrido[3,2,1-kl]phenoxazine-2-carboxylic acid] |  | 5.41 |  | 3.9 | MIC ([2]; wild type): 12.5 µM (≈ 6.21 µg/mL); MIC (E. coli (MG1655) WT): >200 µM; IC50 (E. coli topoisomerase I; [5]): 3.9 µM; Whole cell based antibacterial activity (MIC) E. coli Imp4213 (BAS3023) [1]: 12.5 µM
Nc1ccc2c(c1)Oc1c(N3CC[C@@H](N)C3)c(F)cc3c(=O)c(C(=O)O)cn-2c13 [Compound 17b, (R)-9-amino-6-(3-aminopyrrolidin-1-yl)-5-fluoro-3-oxo-3H-pyrido[3,2,1-kl]phenoxazine-2-carboxylic acid] | > 200 | 6.14 | 6.25 (≈ 2.48 µg/mL) |  | IC50 (Vero cells; Chlorocebus sabaeus, Vero): > 63.1 µM; MIC (M. tuberculosis (H37Rv)): >63.1 µM; MIC (M. tuberculosis (H37Rv); Mycobacterium tuberculosis, H37RV): > 63.1 µM
CCOC(=O)c1cn2c3c(c(F)c(F)cc3c1=O)Oc1cc(C#N)ccc1-2 [Compound 6b, Ethyl 9-cyano-5,6-difluoro-3-oxo-3H-pyrido[3,2,1-kl]phenoxazine-2-carboxylate] | > 200 | 4.51 |  |  | 
CC(=O)Nc1ccc2c(c1)Oc1c(F)c(F)cc3c(=O)c(C(=O)O)cn-2c13 [Compound 12, 9-acetamido-5,6-difluoro-3-oxo-3H-pyrido[3,2,1-kl]phenoxazine-2-carboxylic acid] | > 200 | 5.11 |  |  | MIC [2, 7]: > 200 µM
Nc1ccc2c(c1)Oc1c(NC34CC5CC(CC(C5)C3)C4)c(F)cc3c(=O)c(C(=O)O)cn-2c13 [Compound 11f, 6-(((3s, 5s, 7s)-Adamantan-1-yl)amino)-9-amino-5-fluoro-3-oxo-3H-pyrido[3,2,1-kl]phenoxazine-2-carboxylic acid] |  | 5.23 |  | 3.9 to 7.8 | MIC ([2]; wild type): 12.5 µM (≈ 5.77 µg/mL); MIC (E. coli (MG1655) WT): >200 µM; IC50 (E. coli topoisomerase I; [5]): 5.85 µM; SI (Selectivity index = cytotoxic IC50 against Vero cells/MIC against M. tuberculosis) (Vero cells): 0.8; IC50 (Vero cells): 30.7 µM; MIC (M. tuberculosis (H37Rv)): 38.4 µM (≈ 17.7 µg/mL); Whole cell based antibacterial activity (MIC) E. coli Imp4213 (BAS3023) [1]: 3.12 µM
CCCCCCNc1c(F)cc2c(=O)c(C(=O)O)cn3c2c1Oc1cc(N)ccc1-3 [Compound 11k, 9-Amino-5-fluoro-6-(hexylamino)-3-oxo-3H-pyrido[3,2,1-kl]phenoxazine-2-carboxylic acid] | > 200 | 4.81 |  |  | MIC [2, 7]: > 200 µM; IC50 (E. coli topoisomerase I; [3]): 3.9 to 15.6 µM
